“Also recorded” adds a separate entry of the source.
Tested on: KCa3.1
Assay: Whole cell patch clamp of FcεR1 stimulated KCa3.1 channel activity in BMMCs
Format: cell-based, mouse
Conditions: for rescue of FcεR1 stimulated KCa3.1 channel activity: TRIM27+/+ BMMC transfected with siRNA to PI3KC2β, phosphoinositide added to the pipette solution (PI3P 100 nM)
Protocol: Whole cell patch clamping was performed on TRIM27^+/+ and TRIM27^−/− BMMCs that were first sensitized overnight with anti-DNP IgE and then stimulated with DNP-HSA using conditions previously described (5). Briefly, the standard pipette solution contained 140 mM KCl, 2 mM MgCl2, 10 mM Hepes, 2 mM Na^+-ATP and 0.1 mM GTP, pH 7.3. The standard external solution contained 140 mM NaCl, 5 mM KCl, 2 mM CaCl2, 1 mM MgCl2 and 10 mM Hepes, pH 7.3. Whole-cell currents were recorded using an Axoclamp 200 B amplifier (Axon Instruments, Foster City, Calif., USA), and currents were evoked by applying voltage commands to a range of potentials in 10 mV steps from a holding potential of 20 mV. For measuring the membrane potential, ruptured patch was used in current clamp mode as described in (34).
To verify that PI3KC2β mediated activation of KCa3.1 via the generation of PI3P, PI3P (100 nM) was added into the pipette solution during patch clamping in BMMCs in which PI3KC2β was knocked down using siRNA (32). PI(3)P diC16 [C41H45Na3O16P2 (C6)] was purchased from Echelon Biosciences and used according to specifications at a concentration of 100 nM in the pipette solution.

## CCCCCCCCCCCCCCCC(=O)OC[C@H](COP(=O)(O)O[C@@H]1[C@H](O)[C@H](OP(=O)(O)O)[C@@H](O)[C@H](O)[C@H]1O)OC(=O)CCCCCCCCCCCCCCC [PI3P, phosphatidylinositol 3 phosphate]
  rescue of FcεR1 stimulated KCa3.1 channel activity: restored
TRIM27-/- BMMC transfected with siRNA to PI3KC2β, PI3P added to the pipette solution
  rescue of KCa3.1 channel activity: rescue

## PI4P
  rescue of FcεR1 stimulated KCa3.1 channel activity: failed to rescue
Listed as PI(4)P
  rescue of FcεR1 stimulated KCa3.1 channel activity: failure

## PI(3,4,5)P3
  rescue of FcεR1 stimulated KCa3.1 channel activity: failed to rescue; also recorded: failure

From patent publication US20150204846A1, “PHOSPHATIDYLINOSITOL-3-KINASE C2 BETA MODULATORS AND METHODS OF USE THEREOF” (NEW YORK UNIVERSITY, priority 2012, published 2015)
